Drawing on ChEMBL document CHEMBL2203217, “Prohormone-substrate peptide sequence recognition by peptidylglycine α-amidating monooxygenase and its reflection in increased glycolate inhibitor potency” (Bioorg Med Chem Lett, 2012), this text covers IC50 for one compound.

Test [1] has as its target T1, Peptidyl-glycine alpha-amidating monooxygenase (Homo sapiens, UniProt P19021).
T1 sequence (P19021 whole entry): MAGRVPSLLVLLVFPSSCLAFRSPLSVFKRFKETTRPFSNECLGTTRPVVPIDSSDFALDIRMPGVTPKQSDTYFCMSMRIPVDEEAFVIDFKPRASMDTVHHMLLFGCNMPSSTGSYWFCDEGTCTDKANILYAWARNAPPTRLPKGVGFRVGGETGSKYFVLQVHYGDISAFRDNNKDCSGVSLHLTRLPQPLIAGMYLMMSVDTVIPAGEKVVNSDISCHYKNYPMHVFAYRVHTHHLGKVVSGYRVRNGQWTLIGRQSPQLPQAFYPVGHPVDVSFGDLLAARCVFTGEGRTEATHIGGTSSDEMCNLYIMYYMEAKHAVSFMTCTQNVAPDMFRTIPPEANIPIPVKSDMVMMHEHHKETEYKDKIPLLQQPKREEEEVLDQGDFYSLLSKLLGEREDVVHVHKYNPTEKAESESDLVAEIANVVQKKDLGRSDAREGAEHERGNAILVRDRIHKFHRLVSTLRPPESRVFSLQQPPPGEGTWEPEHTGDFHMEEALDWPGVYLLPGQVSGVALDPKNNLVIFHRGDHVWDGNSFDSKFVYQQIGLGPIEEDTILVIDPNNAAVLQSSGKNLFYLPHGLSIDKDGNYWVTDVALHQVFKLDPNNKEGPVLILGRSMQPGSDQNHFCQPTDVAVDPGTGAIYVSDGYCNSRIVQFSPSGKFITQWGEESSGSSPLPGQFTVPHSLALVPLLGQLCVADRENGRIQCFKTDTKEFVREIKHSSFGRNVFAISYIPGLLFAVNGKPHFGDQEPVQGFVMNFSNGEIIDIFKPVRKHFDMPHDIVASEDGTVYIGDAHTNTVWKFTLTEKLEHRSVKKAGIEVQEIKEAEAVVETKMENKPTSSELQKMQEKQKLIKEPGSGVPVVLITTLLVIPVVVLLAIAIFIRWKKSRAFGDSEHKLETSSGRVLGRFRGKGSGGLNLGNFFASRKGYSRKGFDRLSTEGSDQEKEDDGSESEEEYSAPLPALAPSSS
In words: Competitive inhibition of PAM in human DMS53 cells using as(R)-Tyr-(S)-Val-Gly as substrate after 2 hrs by HPLC analysis. The class given is cell-based, DMS-53.

Test [2] deals with T1, Peptidyl-glycine alpha-amidating monooxygenase. In words: Competitive inhibition of secreted PAM in human DMS53 cell culture medium using as(R)-Tyr-(S)-Val-Gly as substrate after 2 hrs by HPLC analysis. Also on record: species or system DMS-53.

On to `CC(=O)NCC(=O)OCC(=O)O`, for which the IC50 (usually the concentration at which inhibition is half-maximal) is 210 µM in test [1] and 1800 µM in test [2].
